Reference: article PMC8550792, “Evolution of kinase polypharmacology across HSP90 drug discovery” (Cell Chemical Biology, 2021)
Where two headings read alike, the source gives them in different places.

Tests used:
Assay in all cases: biochemical
Assay type in all cases: biochemical
[1] = biological target: T1, 382 unique human kinases (Homo sapiens, UniProt P11802); settings: CDK4/cyclin D1; 10 uM; read-out: % Enzyme Activity (relative to DMSO controls)
T1 construct: purchased Reaction Biology (HotSpot contract assay)

[2] = biological target: T2, 382 unique human kinases (Homo sapiens, UniProt P24941); settings: read-out: % Enzyme Activity (relative to DMSO controls)
T2 construct: purchased Reaction Biology (HotSpot contract assay)

[3] = biological target: T3, 382 unique human kinases (Homo sapiens, UniProt P50750); settings: read-out: % Enzyme Activity (relative to DMSO controls)
T3 construct: purchased Reaction Biology (HotSpot contract assay)

[4] = biological target: T4, 382 unique human kinases (Homo sapiens, UniProt Q00534); settings: kinase CDK6/cyclin D1; compound 10 uM; read-out: % Enzyme Activity (relative to DMSO controls)
T4 construct: purchased Reaction Biology (HotSpot contract assay)
T4 sequence (Q00534 whole entry): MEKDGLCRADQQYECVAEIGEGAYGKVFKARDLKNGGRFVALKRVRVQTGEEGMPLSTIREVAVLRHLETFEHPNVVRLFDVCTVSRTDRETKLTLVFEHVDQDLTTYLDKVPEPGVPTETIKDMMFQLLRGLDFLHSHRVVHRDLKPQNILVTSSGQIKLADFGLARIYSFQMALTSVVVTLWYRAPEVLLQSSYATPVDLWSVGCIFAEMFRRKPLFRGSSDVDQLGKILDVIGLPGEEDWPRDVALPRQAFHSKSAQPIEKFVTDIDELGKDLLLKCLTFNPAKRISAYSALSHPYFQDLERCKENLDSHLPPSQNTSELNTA

T3 sequence (P50750 whole entry): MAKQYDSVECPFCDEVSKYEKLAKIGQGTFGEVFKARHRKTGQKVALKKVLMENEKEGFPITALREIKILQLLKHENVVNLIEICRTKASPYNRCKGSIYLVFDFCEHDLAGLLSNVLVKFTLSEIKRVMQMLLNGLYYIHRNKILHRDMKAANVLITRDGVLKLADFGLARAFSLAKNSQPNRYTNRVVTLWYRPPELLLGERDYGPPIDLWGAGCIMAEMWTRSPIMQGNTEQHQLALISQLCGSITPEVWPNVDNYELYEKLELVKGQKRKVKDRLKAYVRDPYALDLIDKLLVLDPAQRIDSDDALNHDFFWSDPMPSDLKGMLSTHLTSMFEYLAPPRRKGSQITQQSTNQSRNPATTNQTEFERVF
T1 sequence (P11802 whole entry): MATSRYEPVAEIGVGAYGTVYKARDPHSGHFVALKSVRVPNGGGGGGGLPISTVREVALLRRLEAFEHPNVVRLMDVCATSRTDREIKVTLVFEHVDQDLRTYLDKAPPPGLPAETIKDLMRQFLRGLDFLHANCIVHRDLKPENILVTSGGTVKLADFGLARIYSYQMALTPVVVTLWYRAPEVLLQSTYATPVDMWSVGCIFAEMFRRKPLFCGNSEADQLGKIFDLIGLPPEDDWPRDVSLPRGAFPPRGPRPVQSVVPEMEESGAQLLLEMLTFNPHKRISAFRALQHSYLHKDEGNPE

Work on `CC(C)c1cc(-c2n[nH]c(=O)n2-c2ccc3c(ccn3C)c2)c(O)cc1O` [Ganetespib (STA9090)] yielded a remaining activity at 10 µM [1] of 65.6%, a remaining activity at 10 µM ([2]; CDK2/cyclin A, 10 uM) of 74.3% and a remaining activity at 10 µM ([2]; kinase CDK2/cyclin O, compound 10 uM) of 92.8%. For the same compound, the remaining activity at 10 µM ([3]; CDK9/cyclin T2, 10 uM) was 69.9%, the remaining activity at 10 µM ([3]; kinase CDK9/cyclin K, compound 10 uM) was 87% and the remaining activity at 10 µM [4] was 85%.
